target: AMPK; experiment: AMPK activation, enzyme-linked immunosorbent assay; type: biochemical; details: Table 10, compounds of Table 3
Outline: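 Read-out: ELISA, used to detect compound-driven activation of AMPK.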

SMILES | EC50 [nM]
O=C(NC1CCN(C(=O)c2ccc(F)cc2)CC1)c1nc2ccc(OC3CCN(c4ccc(C(F)(F)F)cc4)CC3)cc2o1 [Compound 3-4, N-(1-(4-fluorobenzoyl)piperidin-4-yl)-6-(1-(4-(trifluoromethyl)phenyl)piperidin-4-yloxy)benzo[d]oxazole-2-carboxamide] | < 100
O=C(NC1CCNCC1)c1nc2ccc(OC3CCN(c4ccc(C(F)(F)F)cc4)CC3)cc2o1 [Compound 3-5, N-(piperidin-4-yl)-6-(1-(4-(trifluoromethyl)phenyl)piperidin-4-yloxy)benzo[d]oxazole-2-carboxamide] | 10000 to 100000
N#Cc1ccc(C(=O)N2CCC(NC(=O)c3nc4ccc(OC5CCN(c6ccc(C(F)(F)F)cc6)CC5)cc4o3)CC2)cc1 [Compound 3-6, N-(1-(4-cyanobenzoyl)piperidin-4-yl)-6-(1-(4-(trifluoromethyl)phenyl)piperidin-4-yloxy)benzo[d]oxazole-2-carboxamide] | < 100
O=C(c1nc2ccc(OC3CCN(c4ccc(C(F)(F)F)cc4)CC3)cc2o1)N1CC2CC1CN2Cc1ccncc1 (centres unmarked) [Compound 3-8, (5-(pyridin-4-ylmethyl)-2,5-diazabicyclo[2.2.1]heptan-2-yl)(6-(1-(4-(trifluoromethyl)phenyl)piperidin-4-yloxy)benzo[d]oxazol-2-yl)methanone] | 100 to 1000
NC(=O)c1ccc(CN2CC3CC2CN3C(=O)c2nc3ccc(OC4CCN(c5ccc(C(F)(F)F)cc5)CC4)cc3o2)cc1 (centres unmarked) [Compound 3-9, 4-((5-(6-(1-(4-(trifluoromethyl)phenyl)piperidin-4-yloxy)benzo[d]oxazole-2-carbonyl)-2,5-diazabicyclo[2.2.1]heptan-2-yl)methyl)benzamide] | 100 to 1000

The next lines start with the values.

EC50 [nM] | SMILES
100 to 1000 | N#Cc1ccc(CN2CC3CC2CN3C(=O)c2nc3ccc(OC4CCN(c5ccc(C(F)(F)F)cc5)CC4)cc3o2)cc1 (centres unmarked) [Compound 3-10, 4-((5-(6-(1-(4-(trifluoromethyl)phenyl)piperidin-4-yloxy)benzo[d]oxazole-2-carbonyl)-2,5-diazabicyclo[2.2.1]heptan-2-yl)methyl)benzonitrile]
100 to 1000 | O=C(c1ccncc1)N1CC2CC1CN2C(=O)c1nc2ccc(OC3CCN(c4ccc(C(F)(F)F)cc4)CC3)cc2o1 (centres unmarked) [Compound 3-11, (5-isonicotinoyl-2,5-diazabicyclo[2.2.1]heptan-2-yl)(6-(1-(4-(trifluoromethyl)phenyl)piperidin-4-yloxy)benzo[d]oxazol-2-yl)methanone]
< 100 | N#Cc1ccc(C(=O)N2CC3CC2CN3C(=O)c2nc3ccc(OC4CCN(c5ccc(C(F)(F)F)cc5)CC4)cc3o2)cc1 (centres unmarked) [Compound 3-12, 4-(5-(6-(1-(4-(trifluoromethyl)phenyl)piperidin-4-yloxy)benzo[d]oxazole-2-carbonyl)-2,5-diazabicyclo[2.2.1]heptane-2-carbonyl)benzonitrile]
< 100 | O=C(c1ccc(F)cc1)N1CC2CC1CN2C(=O)c1nc2ccc(OC3CCN(c4ccc(C(F)(F)F)cc4)CC3)cc2o1 (centres unmarked) [Compound 3-13, (5-(4-fluorobenzoyl)-2,5-diazabicyclo[2.2.1]heptan-2-yl)(6-(1-(4-(trifluoromethyl)phenyl)piperidin-4-yloxy)benzo[d]oxazol-2-yl)methanone]
1000 to 10000 | CC(C)(C)OC(=O)N1CCC(NC(=O)c2nc3ccc(OC4CCN(c5ccc(C(F)(F)F)cc5)CC4)cc3s2)CC1 [Compound 3-14, tert-butyl 4-(6-(1-(4-(trifluoromethyl)phenyl)piperidin-4-yloxy)benzo[d]thiazole-2-carboxamido)piperidine-1-carboxylate]
100 to 1000 | O=C(NC1CCN(Cc2ccncc2)CC1)c1nc2ccc(OC3CCN(c4ccc(C(F)(F)F)cc4)CC3)cc2s1 [Compound 3-15, N-(1-(pyridin-4-ylmethyl)piperidin-4-yl)-6-(1-(4-(trifluoromethyl)phenyl)piperidin-4-yloxy)benzo[d]thiazole-2-carboxamide]

From patent publication US9409884B2 (Rigel Pharmaceuticals, Inc., priority 2012, dated 2016)
